According to ChEMBL document CHEMBL1201862, “PubChem BioAssay data set” (2004):
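In this assay, cells in 96-well plates receive the compound at five concentrations for 48 hours. Endpoints are linearly interpolated between the surrounding concentrations. GI50 marks 50% less growth.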 Active and inactive are the calls of the source. Rule as the data show it: active = GI50 up to about 1.1 µM and inactive = higher.

How the values were obtained:
Experiment in all cases: NCI tumour cell line growth inhibition, 48 h
CAKI-1 = tested on: CAKI-1
COLO 205 = tested on: COLO 205
HCC 2998 = tested on: HCC 2998
HOP-92 = tested on: HOP-92
HT-29 = tested on: HT-29
K562 = tested on: K562
LOX IMVI = tested on: LOX IMVI
M14 = tested on: M14
Malme-3M = tested on: Malme-3M
OVCAR-5 = tested on: OVCAR-5
RPMI-8226 = tested on: RPMI-8226
SK-MEL-28 = tested on: SK-MEL-28
SK-MEL-5 = tested on: SK-MEL-5
SK-OV-3 = tested on: SK-OV-3
SN12C = tested on: SN12C
UO-31 = tested on: UO-31
SF-539 = tested on: SF-539

Measured: GI50

O=C(CC1(O)C(=O)Nc2c(Cl)cccc21)c1ccccc1 (stereo unspecified)
inactive: CAKI-1 > 100 µM | COLO 205 > 100 µM | HCC 2998 > 100 µM | HOP-92 > 100 µM | HT-29 84.7 µM | K562 > 100 µM | LOX IMVI > 100 µM | M14 > 100 µM | Malme-3M > 100 µM | OVCAR-5 > 100 µM | RPMI-8226 49.3 µM | SK-MEL-28 > 100 µM | SK-MEL-5 > 100 µM | SK-OV-3 > 100 µM | SN12C > 100 µM | UO-31 > 100 µM

CCOc1ccccc1NC(=O)CC1Sc2ccccc2NC1=O (stereo unspecified)
inactive: CAKI-1 95.7 µM | COLO 205 33.3 µM | HCC 2998 > 100 µM | HOP-92 18.2 µM | HT-29 55.3 µM | K562 38 µM | LOX IMVI > 100 µM | M14 45.8 µM | Malme-3M 52.7 µM | OVCAR-5 > 100 µM | SF-539 62.7 µM | SK-MEL-28 > 100 µM | SK-MEL-5 26.1 µM | SK-OV-3 > 100 µM | SN12C > 100 µM | UO-31 61.1 µM

CN1C(c2ccccc2)CC(=Nc2ccccc2)CC1c1ccccc1 (stereo unspecified)
inactive: CAKI-1 17.5 µM | COLO 205 10.7 µM | HOP-92 7.78 µM | HT-29 8.67 µM | K562 13.2 µM | LOX IMVI 4.48 µM | M14 13.5 µM | Malme-3M 10.8 µM | RPMI-8226 2.98 µM | SK-MEL-28 10.8 µM | SK-MEL-5 10.9 µM | SK-OV-3 2.95 µM | UO-31 20.7 µM

CN(C)CC1CCC/C1=N/OC(=O)c1ccccc1 (stereo unspecified)
inactive: CAKI-1 > 100 µM | COLO 205 > 100 µM | HCC 2998 > 100 µM | HOP-92 > 100 µM | HT-29 > 100 µM | K562 > 100 µM | LOX IMVI > 100 µM | M14 > 100 µM | OVCAR-5 > 100 µM | RPMI-8226 > 100 µM | SF-539 > 100 µM | SK-MEL-28 > 100 µM | SK-MEL-5 > 100 µM | SK-OV-3 > 100 µM | SN12C > 100 µM | UO-31 > 100 µM

C/C(=N\Nc1nnc(S)n1N)c1c(O)cc(C)oc1=O
inactive: CAKI-1 > 100 µM | HCC 2998 > 100 µM | HOP-92 > 100 µM | HT-29 > 100 µM | K562 > 100 µM | LOX IMVI > 100 µM | M14 > 100 µM | Malme-3M > 100 µM | SF-539 > 100 µM | SK-MEL-28 > 100 µM | SK-OV-3 > 100 µM | SN12C > 100 µM | UO-31 > 100 µM

N#CNCC(COCc1ccccc1)c1ccccc1 (stereo unspecified)
inactive: COLO 205 > 100 µM | HCC 2998 > 100 µM | HOP-92 > 100 µM | K562 40.3 µM | LOX IMVI > 100 µM | M14 > 100 µM | Malme-3M > 100 µM | RPMI-8226 > 100 µM | SF-539 > 100 µM | SK-MEL-28 > 100 µM | SK-MEL-5 49.2 µM | SK-OV-3 > 100 µM | SN12C > 100 µM | UO-31 46.1 µM

CC1=NN2C(c3ccc([N+](=O)[O-])cc3)=CSC2=NC(C)(C)C1
inactive: COLO 205 > 100 µM | HCC 2998 > 100 µM | HOP-92 79.6 µM | HT-29 > 100 µM | K562 > 100 µM | LOX IMVI > 100 µM | M14 > 100 µM | Malme-3M > 100 µM | OVCAR-5 > 100 µM | RPMI-8226 > 100 µM | SF-539 > 100 µM | SK-MEL-28 > 100 µM | SK-MEL-5 > 100 µM | SK-OV-3 > 100 µM | SN12C > 100 µM | UO-31 88.1 µM

CN(/N=N/c1[nH]cnc1C(N)=O)C1CCCCC1
inactive: COLO 205 > 100 µM | HCC 2998 > 100 µM | HOP-92 55.1 µM | HT-29 > 100 µM | LOX IMVI 42.2 µM | M14 72.9 µM | Malme-3M 74.6 µM | OVCAR-5 > 100 µM | RPMI-8226 52.6 µM | SF-539 > 100 µM | SK-MEL-28 > 100 µM | SK-MEL-5 > 100 µM | SK-OV-3 48.2 µM | SN12C > 100 µM

C/C=C/CC(S(=O)(=O)c1ccccc1)S(=O)(=O)c1ccccc1
inactive: COLO 205 > 100 µM | HCC 2998 > 100 µM | HOP-92 > 100 µM | HT-29 > 100 µM | K562 > 100 µM | LOX IMVI > 100 µM | M14 > 100 µM | OVCAR-5 > 100 µM | RPMI-8226 95.3 µM | SF-539 > 100 µM | SK-MEL-28 > 100 µM | SK-MEL-5 > 100 µM | SK-OV-3 > 100 µM | SN12C > 100 µM | UO-31 > 100 µM

CCOC(=O)C(Sc1ccccc1)c1c(OC)cc(=O)oc1/C=[N+](/[O-])c1ccc(N(C)C)cc1 (stereo unspecified)
inactive: CAKI-1 14.9 µM | COLO 205 22.4 µM | HCC 2998 23.9 µM | HT-29 16.3 µM | K562 6.81 µM | LOX IMVI 13.4 µM | M14 16.2 µM | Malme-3M 17.2 µM | OVCAR-5 46 µM | RPMI-8226 19.6 µM | SF-539 24.4 µM | SK-MEL-28 17.5 µM | SK-MEL-5 20 µM | SK-OV-3 75.7 µM | SN12C 16.2 µM | UO-31 18.5 µM

Cc1nc2c(=O)n(C)c(=O)nc-2n(-c2ccc(Cl)cc2)c1C
inactive: CAKI-1 43.1 µM | COLO 205 > 100 µM | HCC 2998 > 100 µM | HOP-92 > 100 µM | HT-29 > 100 µM | K562 41.7 µM | M14 82.6 µM | Malme-3M > 100 µM | OVCAR-5 > 100 µM | SF-539 > 100 µM | SK-MEL-28 > 100 µM | SK-MEL-5 79.1 µM | SK-OV-3 > 100 µM | SN12C > 100 µM | UO-31 80.4 µM

C[Si](C)(C)[C@@]1([Se]c2ccccc2)CC[C@@H]1C(=O)c1ccccc1
inactive: CAKI-1 72.1 µM | COLO 205 > 100 µM | HCC 2998 32.6 µM | HT-29 42.3 µM | K562 34.5 µM | LOX IMVI 35.9 µM | M14 80.4 µM | Malme-3M 70 µM | OVCAR-5 > 100 µM | RPMI-8226 20.1 µM | SF-539 62.7 µM | SK-MEL-28 55.2 µM | SK-MEL-5 18.5 µM | SK-OV-3 > 100 µM | SN12C 61.4 µM | UO-31 32.3 µM

COc1cccc(-n2c3nc(=O)n(C)c(=O)c-3nc3ccccc32)c1
inactive: CAKI-1 16.2 µM | COLO 205 3.5 µM | HCC 2998 3.88 µM | HOP-92 26 µM | HT-29 4.55 µM | K562 24.2 µM | M14 11.7 µM | Malme-3M 14.3 µM | OVCAR-5 19.2 µM | RPMI-8226 12.5 µM | SF-539 12.4 µM | SK-MEL-28 22.1 µM | SK-MEL-5 3.24 µM | SK-OV-3 > 100 µM | SN12C 13.7 µM | UO-31 49.8 µM
